Assay results as given in patent publication US20200216563A1, “HDAC6 AND PROTEIN AGGREGATION” (Friedrich Miescher Institute for Biomedical Research, priority 2017, published 2020).

How the values were obtained:
DDX3X-K118Ac = experiment: DDX3X acetylation in HEK293T cells expressing CBP or p300 (immunoprecipitation and immunoblotting); assay type: cell-based, human; conditions: for DDX3X-K118Ac signal after treating the cells with HDAC inhibitors: HEK293T cells transiently expressing CBP, DDX3X-K118Ac-specific antibody
Method: HEK293T cells were transfected with Lipofectamine 2000 (Life Technologies) or FuGENE HD (Promega), and MEF cells were transfected with 4D-Nucleofector™ System (Lonza), following manufacturer's protocol.
Cells were washed by ice-cold PBS and lysed in Triton lysis buffer (50 mM Tris-HCl, pH8.0, 150 mM sodium chloride, 1 mM EDTA, 0.1% TritonX-100 and Complete EDTA-free protease inhibitors (Roche)) for analysis. To detect protein acetylation, 0.2 μM Trichostatin A and 5 mM nicotinamide was added to PBS for wash, and 10 μM Trichostatin A, 10 mM nicotinamide, 50 mM sodium butyrate were added to Triton lysis buffer. To detect protein phosphorylation, Pierce Protease and Phosphatase Inhibitor Mini Tablets (Thermo scientific) were added to Triton lysis buffer instead of Complete EDTA-free protease inhibitors. Five hundred μg protein lysates were incubated with the specific antibody for overnight at 4° C., and immunoprecipitated with Dynabeads ProteinG (invitrogen) for 1 h at 4° C. Samples were boiled for 10 min in SDS-PAGE sample buffer, and separated with 4-12% NuPAGE gels (invitrogen). […] For inhibition of HDACs in cells, concentration of each HDAC inhibitor was as described in {Scholz, 2015 #851}.
(§1) To investigate whether DDX3X-K118Ac is a direct target site of HDAC6, the inventors performed a biochemical assay using purified components. […] Next, they tested the acetylation status of DDX3X in cells. It has been shown that the stoichiometry of acetylation is generally low {Weinert, 2014 #452}, making it difficult to detect. The inventors therefore attempted to enhance the level of acetylation by expressing different HATs. To test which HAT(s) can act on DDX3X, expression vectors for PCAF, CBP, Tip60 or p300 were individually transfected into HEK293T cells and cellular extracts were analyzed by immunoprecipitation and immunoblotting.
Different deacetylases often redundantly target the same lysine acetylation site on a target protein. […] To test whether the DDX3X-K118 deacetylation is specific for HDAC6, the inventors transiently expressed CBP in HEK293T cells and assessed the DDX3X-K118Ac signal after treating the cells with several HDAC inhibitors.

[1] = target: T1, Danio rerio HDAC6 CD1-CD2 (a.a.40-831) (Danio rerio, UniProt F8W4B7); experiment: In vitro HDAC6 deacetylation assay with DDX3X-K118 acetylated peptide; assay type: biochemical; conditions: 1 μM Trichostatin A, 3 hours, 37° C., HPLC UV 214 nm
T1 construct: Danio rerio HDAC6 CD1-CD2 (a.a.40-831) was expressed in Sf9 insect cells; made in house; host or cells: Sf9 insect cells
T1 sequence (F8W4B7 40-831): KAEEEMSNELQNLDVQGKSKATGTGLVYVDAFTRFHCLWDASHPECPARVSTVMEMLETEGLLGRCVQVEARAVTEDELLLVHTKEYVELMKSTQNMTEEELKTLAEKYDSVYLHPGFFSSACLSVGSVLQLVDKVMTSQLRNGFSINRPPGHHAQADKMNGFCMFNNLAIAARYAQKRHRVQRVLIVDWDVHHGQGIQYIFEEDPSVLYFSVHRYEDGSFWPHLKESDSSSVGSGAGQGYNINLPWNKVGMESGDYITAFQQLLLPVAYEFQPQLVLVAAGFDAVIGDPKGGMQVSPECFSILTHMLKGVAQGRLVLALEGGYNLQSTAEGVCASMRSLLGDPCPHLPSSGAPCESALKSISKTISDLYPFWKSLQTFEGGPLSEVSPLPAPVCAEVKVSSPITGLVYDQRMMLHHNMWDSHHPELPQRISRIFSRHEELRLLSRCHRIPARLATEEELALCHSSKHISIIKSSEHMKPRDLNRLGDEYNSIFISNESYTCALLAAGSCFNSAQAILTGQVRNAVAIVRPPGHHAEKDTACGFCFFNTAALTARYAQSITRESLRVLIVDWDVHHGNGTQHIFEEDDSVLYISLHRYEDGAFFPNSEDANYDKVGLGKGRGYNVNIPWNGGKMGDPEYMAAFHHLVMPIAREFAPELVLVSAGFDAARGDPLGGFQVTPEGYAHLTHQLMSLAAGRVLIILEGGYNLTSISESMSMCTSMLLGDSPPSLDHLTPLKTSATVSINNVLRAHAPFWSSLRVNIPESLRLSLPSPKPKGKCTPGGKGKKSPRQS
From the text: as §1

DDX3X-K118 acetylation = DDX3X-K118 acetylation under arsenite-induced oxidative stress (immunoblotting); assay type: cell-based

| Compound | DDX3X-K118Ac signal after treating the cells with HDAC inhibitors (DDX3X-K118Ac) | further results |
| --- | --- | --- |
| CCCCOc1ccc(CC(=O)NO)cc1 [Bufexamac] | increased | – |
| CC(/C=C/C(=O)NO)=C\[C@@H](C)C(=O)c1ccc(N(C)C)cc1 [Trichostatin A] | – | deacetylation of the DDX3X-K118Ac peptide by purified tandem HDAC6 catalytic domains [1]: inhibited |
| O=C(CCCCCCC(=O)Nc1ccc([C@H]2O[C@@H](CSc3nc(-c4ccccc4)c(-c4ccccc4)o3)C[C@@H](c3ccc(CO)cc3)O2)cc1)NO [Tubacin] | increased | acetylation level of endogenous or overexpressed DDX3X (DDX3X-K118Ac; HEK293T cells transfected with CBP or p300 (with or without DDX3X construct), treatment of the cells with inhibitor): increased even further; DDX3X-K118 acetylation after arsenite treatment plus HDAC6 inhibitor (DDX3X-K118 acetylation; WT cells treated with arsenite and also with Tubacin): further increased |
| CN1CCc2c(c3ccccc3n2Cc2ccc(C(=O)NO)cc2)C1 [Tubastatin A] | increased | – |
| NC(=O)c1cccnc1 [nicotinamide] | neither nicotinamide, a sirtuin deacetylase inhibitor, nor sodium butyrate, a class I HDAC inhibitor, altered the acetylation status | – |
| CCCC(=O)[O-].[Na+] [sodium butyrate] | neither nicotinamide, a sirtuin deacetylase inhibitor, nor sodium butyrate, a class I HDAC inhibitor, altered the acetylation status | – |
| sodium arsenite | – | DDX3X-K118 acetylation after arsenite treatment (DDX3X-K118 acetylation): increased |
